Source: patent US10772893B2, “2-(morpholin-4-yl)-1,7-naphthyridines” (BAYER PHARMA AKTIENGESELLSCHAFT, priority 2014, dated 2020)

test system: HeLa cells; assay: Proliferation assay, crystal violet staining; details: Homo sapiens, 96 h, read-out: Inhibition of HeLa cell proliferation, HeLa cells, 4 days incubation
Procedure: After 24 hours, the cells of one plate (zero plate) were dyed with crystal violet (see below), whereas the medium of the other plates was replaced with fresh culture medium (200 μl) to which the test substances were added in various concentrations (0 μM, and also in the range of 0.001-10 μM; the final concentration of the solvent dimethyl sulphoxide was 0.1 or 0.5%). The cells were incubated for 4 days in the presence of the test substances. […] After washing the fixed cells three times with water, the plates were dried at room temperature. The cells were stained by adding 100 μl/measurement point of a 0.1% strength crystal violet solution (pH adjusted to pH 3 by adding acetic acid). After washing the cells three times with water, the plates were dried at room temperature. The dye was dissolved by adding 100 μl/measurement point of a 10% strength acetic acid solution. […] The percentage change in cell growth was calculated by normalizing the measured values to the absorbance values of the zero plate (=0%) and the absorbance of the untreated (0 W) cells (=100%). The IC50 values were determined by means of a four parameter fit.

IC50 [nM] | SMILES
458 | CC(C)n1cc(-c2cc(N3CCOC[C@H]3C)nc3c(-c4ccn[nH]4)nccc23)cn1 [Example 255, 2-[(3R)-3-methylmorpholin-4-yl]-4-[1-(propan-2-yl)-1H-pyrazol-4-yl]-8-(1H-pyrazol-5-yl)-1,7-naphthyridine]
263 | Cc1nn(C)c(C)c1-c1cc(N2CCOC[C@H]2C)nc2c(-c3ccn[nH]3)nccc12 [Example 258, 2-[(3R)-3-methylmorpholin-4-yl]-8-(1H-pyrazol-5-yl)-4-(1,3,5-trimethyl-1H-pyrazol-4-yl)-1,7-naphthyridine]
497 | C[C@@H]1COCCN1c1cc(-c2cn(C)nc2C(F)(F)F)c2ccnc(-c3ccn[nH]3)c2n1 [Example 259, 2-[(3R)-3-methylmorpholin-4-yl]-4-[1-methyl-3-(trifluoromethyl)-1H-pyrazol-4-yl]-8-(1H-pyrazol-5-yl)-1,7-naphthyridine]
485 | C[C@@H]1COCCN1c1cc(-c2cnn(CCO)c2)c2ccnc(-c3ccn[nH]3)c2n1 [Example 260]
420 | CCn1cc(-c2cc(N3CCOC[C@H]3C)nc3c(-c4ccn[nH]4)nccc23)cn1 [Example 261, 4-(1-ethyl-1H-pyrazol-4-yl)-2-[(3R)-3-methylmorpholin-4-yl]-8-(1H-pyrazol-5-yl)-1,7-naphthyridine]
471 | C[C@@H]1COCCN1c1cc(-c2ccn(C)c2)c2ccnc(-c3ccn[nH]3)c2n1 [Example 262, 2-[(3R)-3-methylmorpholin-4-yl]-4-(1-methyl-1H-pyrrol-3-yl)-8-(1H-pyrazol-5-yl)-1,7-naphthyridine]
332 | CC(C)n1ccc(-c2cc(N3CCOC[C@H]3C)nc3c(-c4ccn[nH]4)nccc23)n1 [Example 263, 2-[(3R)-3-methylmorpholin-4-yl]-4-[1-(propan-2-yl)-1H-pyrazol-3-yl]-8-(1H-pyrazol-5-yl)-1,7-naphthyridine]
198 | Cc1cc(-c2cc(N3CCOC[C@H]3C)nc3c(-c4ccn[nH]4)nccc23)c(C)n1C [Example 264, 2-[(3R)-3-methylmorpholin-4-yl]-8-(1H-pyrazol-5-yl)-4-(1,2,5-trimethyl-1H-pyrrol-3-yl)-1,7-naphthyridine]
154 | Cc1n[nH]cc1-c1cc(N2CCOC[C@H]2C)nc2c(-c3ccn[nH]3)nccc12 [Example 266, 2-[(3R)-3-methylmorpholin-4-yl]-4-(3-methyl-1H-pyrazol-4-yl)-8-(1H-pyrazol-5-yl)-1,7-naphthyridine]
2970 | C[C@@H]1COCCN1c1cc(N)c2ccnc(-c3ccn[nH]3)c2n1 [Example 267, 2-[(3R)-3-methylmorpholin-4-yl]-8-(1H-pyrazol-5-yl)-1,7-naphthyridin-4-amine]
415 | CC(C)Cn1cc(-c2cc(N3CCOC[C@H]3C)nc3c(-c4ccn[nH]4)nccc23)cn1 [Example 268, 2-[(3R)-3-methylmorpholin-4-yl]-4-[1-(2-methylpropyl)-1H-pyrazol-4-yl]-8-(1H-pyrazol-5-yl)-1,7-naphthyridine]
405 | C[C@@H]1COCCN1c1cc(-c2cn[nH]c2)c2ccnc(-c3ccn[nH]3)c2n1 [Example 269, 2-[(3R)-3-methylmorpholin-4-yl]-4-(1H-pyrazol-4-yl)-8-(1H-pyrazol-5-yl)-1,7-naphthyridine]
565 | C[C@@H]1COCCN1c1cc(-c2ncco2)c2ccnc(-c3ccn[nH]3)c2n1 [Example 270, 2-[(3R)-3-methylmorpholin-4-yl]-4-(1,3-oxazol-2-yl)-8-(1H-pyrazol-5-yl)-1,7-naphthyridine]
1330 | Cc1nn(C)cc1-c1cc(N2CCOCC2)nc2c(-c3ccn[nH]3)nccc12 [Example 271, 4-(1,3-dimethyl-1H-pyrazol-4-yl)-2-(morpholin-4-yl)-8-(1H-pyrazol-5-yl)-1,7-naphthyridine]
648 | Cc1c(-c2cc(N3CCOCC3)nc3c(-c4ccn[nH]4)nccc23)cnn1C [Example 272, 4-(1,5-dimethyl-1H-pyrazol-4-yl)-2-(morpholin-4-yl)-8-(1H-pyrazol-5-yl)-1,7-naphthyridine]
999 | Cc1nn(C)c(C)c1-c1cc(N2CCOCC2)nc2c(-c3ccn[nH]3)nccc12 [Example 273, 2-(morpholin-4-yl)-8-(1H-pyrazol-5-yl)-4-(1,3,5-trimethyl-1H-pyrazol-4-yl)-1,7-naphthyridine]
610 | COCCS(C)(=O)=Nc1cc(N2CCOC[C@H]2C)nc2c(-c3ccn[nH]3)nccc12 (stereo partly drawn) [Example 274, 4-{[(2-methoxyethyl)(methyl)oxido-λ^6-sulfanylidene]amino}-2-[(3R)-3-methylmorpholin-4-yl]-8-(1H-pyrazol-5-yl)-1,7-naphthyridine]
401 | C[C@@H]1COCCN1c1cc(N=S(C)(=O)c2ccc(Br)cc2)c2ccnc(-c3ccn[nH]3)c2n1 (stereo partly drawn) [Example 277, 4-{[(4-bromophenyl)(methyl)oxido-λ^6-sulfanylidene]amino}-2-[(3R)-3-methylmorpholin-4-yl]-8-(1H-pyrazol-5-yl)-1,7-naphthyridine]
168 | C[C@@H]1COCCN1c1cc(N=S(C)(=O)C(C)(C)C)c2ccnc(-c3ccn[nH]3)c2n1 (stereo partly drawn) [Example 278, 4-{[tert-butyl(methyl)oxido-λ^6-sulfanylidene]amino}-2-[(3R)-3-methylmorpholin-4-yl]-8-(1H-pyrazol-5-yl]-1,7-naphthyridine]

IC50 [nM] | SMILES
417 | O=S1(=Nc2cc(N3CCOCC3)nc3c(-c4ccn[nH]4)nccc23)CCCCC1 [Example 280, N-[2-(morpholin-4-yl)-8-(1H-pyrazol-5-yl)-1,7-naphthyridin-4-yl]hexahydro-1λ^4-thiopyran-1-imine 1-oxide]
259 | CC(C)C(C)(O)c1cc(N2CCOC[C@H]2C)nc2c(-c3ccn[nH]3)nccc12 (stereo partly drawn) [Example 281, 3-methyl-2-{2-[(3R)-3-methylmorpholin-4-yl]-8-(1H-pyrazol-5-yl)-1,7-naphthyridin-4-yl}butan-2-ol]
1180 | C[C@@H]1COCCN1c1cc(C(C)(O)C2CCOCC2)c2ccnc(-c3ccn[nH]3)c2n1 (stereo partly drawn) [Example 282, 1-{2-[(3R)-3-methylmorpholin-4-yl]-8-(1H-pyrazol-5-yl)-1,7-naphthyridin-4-yl}-1-(tetrahydro-2H-pyran-4-yl)ethanol]
146 | C[C@@H]1COCCN1c1cc(C(C)(O)C(C)(C)C)c2ccnc(-c3ccn[nH]3)c2n1 (stereo partly drawn) [Example 283, 3,3-dimethyl-2-{2-[(3R)-3-methylmorpholin-4-yl]-8-(1H-pyrazol-5-yl)-1,7-naphthyridin-4-yl}butan-2-ol]
852 | CCCCC(C)(O)c1cc(N2CCOC[C@H]2C)nc2c(-c3ccn[nH]3)nccc12 (stereo partly drawn) [Example 284, 2-{2-[(3R)-3-methylmorpholin-4-yl]-8-(1H-pyrazol-5-yl)-1,7-naphthyridin-4-yl}hexan-2-ol]
1520 | O=C(NC1CC1)c1ccc(-c2cc(N3CCOCC3)nc3c(-c4ccn[nH]4)nccc23)cc1 [Example 291, N-cyclopropyl-4-[2-(morpholin-4-yl)-8-(1H-pyrazol-5-yl)-1,7-naphthyridin-4-yl]benzamide]
2640 | Cc1ccncc1-c1cc(N2CCOCC2)nc2c(-c3ccn[nH]3)nccc12 [Example 292, 4-(4-methylpyridin-3-yl)-2-(morpholin-4-yl)-8-(1H-pyrazol-5-yl)-1,7-naphthyridine]
2450 | c1cc(-c2cc(N3CCOCC3)nc3c(-c4ccn[nH]4)nccc23)c2cc[nH]c2c1 [Example 294, 4-(1H-indol-4-yl)-2-(morpholin-4-yl)-8-(1H-pyrazol-5-yl)-1,7-naphthyridine]
2740 | NC(=O)c1ccc(-c2cc(N3CCOCC3)nc3c(-c4ccn[nH]4)nccc23)cc1 [Example 296, 4-[2-(morpholin-4-yl)-8-(1H-pyrazol-5-yl)-1,7-naphthyridin-4-yl]benzamide]
2440 | Fc1cccc(-c2cc(N3CCOCC3)nc3c(-c4ccn[nH]4)nccc23)c1 [Example 298, 4-(3-fluorophenyl)-2-(morpholin-4-yl)-8-(1H-pyrazol-5-yl)-1,7-naphthyridine]
> 3000 | Clc1ccc(-c2cc(N3CCOCC3)nc3c(-c4ccn[nH]4)nccc23)s1 [Example 299, 4-(5-chlorothiophen-2-yl)-2-(morpholin-4-yl)-8-(1H-pyrazol-5-yl)-1,7-naphthyridine]
2820 | FC(F)(F)c1ccccc1-c1cc(N2CCOCC2)nc2c(-c3ccn[nH]3)nccc12 [Example 301, 2-(morpholin-4-yl)-8-(1H-pyrazol-5-yl)-4-[2-(trifluoromethyl)phenyl]-1,7-naphthyridine]
> 3000 | FC(F)(F)c1cccc(-c2cc(N3CCOCC3)nc3c(-c4ccn[nH]4)nccc23)c1 [Example 303, 2-(morpholin-4-yl)-8-(1H-pyrazol-5-yl)-4-[3-(trifluoromethyl)phenyl]-1,7-naphthyridine]
> 3000 | Clc1cccc(-c2cc(N3CCOCC3)nc3c(-c4ccn[nH]4)nccc23)c1 [Example 304, 4-(3-chlorophenyl)-2-(morpholin-4-yl)-8-(1H-pyrazol-5-yl)-1,7-naphthyridine]
> 3000 | COc1cccc(-c2cc(N3CCOCC3)nc3c(-c4ccn[nH]4)nccc23)c1 [Example 306, 4-(3-methoxyphenyl)-2-(morpholin-4-yl)-8-(1H-pyrazol-5-yl)-1,7-naphthyridine]
> 3000 | c1coc(Cc2cc(N3CCOCC3)nc3c(-c4ccn[nH]4)nccc23)c1 [Example 310, 4-(furan-2-ylmethyl)-2-(morpholin-4-yl)-8-(1H-pyrazol-5-yl)-1,7-naphthyridine]
> 3000 | Cc1cccc(-c2cc(N3CCOCC3)nc3c(-c4ccn[nH]4)nccc23)c1C [Example 312, 4-(2,3-dimethylphenyl)-2-(morpholin-4-yl)-8-(1H-pyrazol-5-yl)-1,7-naphthyridine]
2540 | OCc1cccc(-c2cc(N3CCOCC3)nc3c(-c4ccn[nH]4)nccc23)c1 [Example 313, {3-[2-(morpholin-4-yl)-8-(1H-pyrazol-5-yl)-1,7-naphthyridin-4-yl]phenyl}methanol]
> 3000 | Fc1ccc(-c2cc(N3CCOCC3)nc3c(-c4ccn[nH]4)nccc23)cc1 [Example 314, 4-(4-fluorophenyl)-2-(morpholin-4-yl)-8-(1H-pyrazol-5-yl)-1,7-naphthyridine]
